# Measured values from US20140227333A1, “DRY ACTIVE OXYGEN TECHNOLOGY” (ECOLAB USA INC., priority 2013, published 2014).
# Where two headings read alike, the source gives them in different places.
# Columns and labels:
# [1] = Titration of hydrogen peroxide concentration, initially and 24 hours later (stability of the active oxidant); assay type: physicochemical; details: titrated initially and 24 hours later
# Protocol: The dry-to-touch powder compositions generated in Example 2 were further analyzed for stability of the active oxidant. The compositions were titrated initially and 24 hours later, giving nearly the same resulting amount of hydrogen peroxide concentration in the untreated liquid composition (35%) and the dry-to-touch powder composition (31%).
# [2] = cited from earlier work
Molecule,hydrogen peroxide concentration [1],PEI protonated ([2]; pH 2),PEI protonated ([2]; pH 4),PEI protonated ([2]; pH 5),PEI protonated ([2]; pH 8),PEI protonated ([2]; pH 10)
"OO [liquid hydrogen peroxide (35%), hydrogen peroxide]",35%,–,–,–,–,–
polyethyleneimine [PEI],–,about 73%,about 50%,about 33%,about 25%,about 4%
